Source: US20260022142A1, “MACROCYCLIC IMMUNOMODULATORS” (Bristol-Myers Squibb Company, priority 2022, published 2026)
Numbered stars: 1 amine (or outer) side, 2 acyl side, 3 side chain; on linkers, the order of the positions; unused ones are H or OH. Bridge positions count the residues as written; N and C are the ends. Square brackets hold non-standard residues; d marks the D form. Peptide text beside a SMILES is read from it. * marks the point of attachment. ξ: configuration not given here. Bip = N[C@@H](Cc1ccc(-c2ccccc2)cc1)C(=O)O; Phe(3-Me) = Cc1cccc(C[C@H](N)C(=O)O)c1; γGlu = O=C(O)[C@H](CCC(=O)[*:2])N[*:1]; Cha = N[C@@H](CC1CCCCC1)C(=O)O; Thr(3ξ) = CC(O)[C@H](N)C(=O)O; Carboxymethyl = O=C(O)C*; Orn = NCCC[C@H](N)C(=O)O; Aun = NCCCCCCCCCCC(=O)O; Dab = NCC[C@H](N)C(=O)O; Dap = NC[C@H](N)C(=O)O; AEEA = NCCOCCOCC(=O)O

Biological target: T1, PD-1/PD-L1 interaction (PE-labeled human PD-L1-Ig binding to Jurkat cell line over-expressing human PD-1) (Homo sapiens, UniProt Q15116)
T1 construct: expressed in transfected cells; host or cells: Jurkat
T1 sequence (Q15116 25-288): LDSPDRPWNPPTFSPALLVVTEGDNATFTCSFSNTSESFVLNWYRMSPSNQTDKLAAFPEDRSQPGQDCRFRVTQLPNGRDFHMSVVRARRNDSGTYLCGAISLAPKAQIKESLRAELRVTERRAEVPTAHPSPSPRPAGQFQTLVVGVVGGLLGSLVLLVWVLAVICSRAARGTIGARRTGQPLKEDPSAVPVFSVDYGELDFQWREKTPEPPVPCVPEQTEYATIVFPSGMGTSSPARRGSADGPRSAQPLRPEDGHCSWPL
Assay: Jurkat-PD-1 Cell Binding High-Content Screening Assay (CBA)
Type: cell-based
Conditions: Jurkat cell line over-expressing human PD-1; PE-labeled PD-L1-Ig 20 nM final; read-out: Jurkat hPD1-PDL1 IC50
Summary of the method: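 Binding of fluorescent PD-L1-Ig (20 nM final) to Jurkat-PD-1 cells was measured by automated imaging after 1 h, following a 2 h compound pre-treatment at 37° C.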

CC(C)C[C@H]1NC(=O)[C@H](CCCN)NC(=O)[C@H](Cc2ccc(O)cc2)NC(=O)[C@H](Cc2ccc(-c3ccccc3)cc2)NC(=O)[C@H](C(C)C)NC(=O)[C@H](Cc2c[nH]c3ccccc23)NC(=O)[C@H](CC(=O)O)NC(=O)[C@H](Cc2ccc(OCC(=O)O)cc2)NC(=O)[C@H](CN)NC(=O)CSC[C@@H](C(=O)N[C@@H](CCN)C(=O)NCCCCCCCCCCC(=O)O)NC(=O)[C@H](CCCCN)NC(=O)[C@H](C(C)O)NC(=O)[C@H](CC2CCCCC2)NC(=O)[C@H](CCN)NC1=O (stereo partly drawn) [Compound 3655] ({CH2CO}-[Dap]Y(Carboxymethyl)DWV[Bip]Y[Orn][dL][Dab][Cha][Thr(3ξ)]KC[Dab][Aun]-OH; thioether N-14)
IC50: 61.8 nM

CC(C)C[C@H]1NC(=O)[C@H](CCCN)NC(=O)[C@H](Cc2ccc(O)cc2)NC(=O)[C@H](Cc2ccc(-c3ccccc3)cc2)NC(=O)[C@H](Cc2ccc(O)cc2)NC(=O)[C@H](Cc2c[nH]c3ccccc23)NC(=O)[C@H](CC(=O)O)NC(=O)[C@H](Cc2ccc(OCC(=O)O)cc2)NC(=O)[C@H](CN)NC(=O)CSC[C@@H](C(=O)N[C@@H](CCN)C(=O)NCCCCCCCCCCC(=O)O)NC(=O)[C@H](CN)NC(=O)[C@H](C(C)O)NC(=O)[C@H](CC2CCCCC2)NC(=O)[C@H](CCN)NC1=O (stereo partly drawn) [Compound 3656] ({CH2CO}-[Dap]Y(Carboxymethyl)DWY[Bip]Y[Orn][dL][Dab][Cha][Thr(3ξ)][Dap]C[Dab][Aun]-OH; thioether N-14)
IC50: 178 nM

CC(C)C[C@H]1NC(=O)[C@H](CCCN)NC(=O)[C@H](Cc2ccc(O)cc2)NC(=O)[C@H](Cc2ccc(-c3ccccc3)cc2)NC(=O)[C@H](Cc2ccc(O)cc2)NC(=O)[C@H](Cc2c[nH]c3ccccc23)NC(=O)[C@H](CC(=O)O)NC(=O)[C@H](Cc2ccc(OCC(=O)O)cc2)NC(=O)[C@H](CN)NC(=O)CSC[C@@H](C(=O)N[C@@H](CCN)C(=O)NCCCCCCCCCCC(=O)O)NC(=O)[C@H](CCCCN)NC(=O)[C@H](C(C)O)NC(=O)[C@H](CC2CCCCC2)NC(=O)[C@H](CCN)NC1=O (stereo partly drawn) [Compound 3657] ({CH2CO}-[Dap]Y(Carboxymethyl)DWY[Bip]Y[Orn][dL][Dab][Cha][Thr(3ξ)]KC[Dab][Aun]-OH; thioether N-14)
IC50: 121 nM

CC(C)C[C@@H]1NC(=O)[C@H](Cc2c[nH]c3ccccc23)NC(=O)[C@H](CC(=O)O)NC(=O)[C@H](Cc2ccc(OCC(=O)O)cc2)NC(=O)[C@H](CN)NC(=O)CSC[C@@H](C(=O)N[C@@H](CCN)C(=O)NCCCCCCCCCCC(=O)O)NC(=O)[C@H](CN)NC(=O)[C@H](C(C)O)NC(=O)[C@H](CC2CCCCC2)NC(=O)[C@H](CCN)NC(=O)[C@@H](CC(C)C)NC(=O)[C@H](CCCN)NC(=O)[C@H](Cc2ccc(O)cc2)NC(=O)[C@H](Cc2ccc(-c3ccccc3)cc2)NC1=O (stereo partly drawn) [Compound 3658] ({CH2CO}-[Dap]Y(Carboxymethyl)DWL[Bip]Y[Orn][dL][Dab][Cha][Thr(3ξ)][Dap]C[Dab][Aun]-OH; thioether N-14)
IC50: 88 nM

Cc1cccc(C[C@@H]2NC(=O)[C@H](CC(=O)O)NC(=O)[C@H](Cc3ccc(OCC(=O)O)cc3)NC(=O)[C@H](CN)NC(=O)CSC[C@@H](C(=O)N[C@H](CC(N)=O)C(=O)NCCCCCCCCCCC(=O)O)NC(=O)[C@H](CO)NC(=O)[C@H](C(C)O)NC(=O)[C@H](CC3CCCCC3)NC(=O)[C@H](CCN)NC(=O)[C@@H](CC(C)C)NC(=O)[C@H](CCCN)NC(=O)[C@H](Cc3ccc(OCC(=O)O)cc3)NC(=O)[C@H](Cc3ccc(-c4ccccc4)cc3)NC(=O)[C@H](Cc3ccc(OCC(=O)O)cc3)NC2=O)c1 (stereo partly drawn) [Compound 3659] ({CH2CO}-[Dap]Y(Carboxymethyl)D[Phe(3-Me)]Y(Carboxymethyl)[Bip]Y(Carboxymethyl)[Orn][dL][Dab][Cha][Thr(3ξ)]SC[dN][Aun]-OH; thioether N-14)
IC50: 47.6 nM

Cc1cccc(C[C@@H]2NC(=O)[C@H](CC(=O)O)NC(=O)[C@H](Cc3ccc(OCC(=O)O)cc3)NC(=O)[C@H](CCN)NC(=O)CSC[C@@H](C(=O)N[C@H](CC(N)=O)C(=O)NCCCCCCCCCCC(=O)O)NC(=O)[C@H](CO)NC(=O)[C@H](C(C)O)NC(=O)[C@H](CC3CCCCC3)NC(=O)[C@H](CCN)NC(=O)[C@@H](CC(C)C)NC(=O)[C@H](CCCN)NC(=O)[C@H](Cc3ccc(OCC(=O)O)cc3)NC(=O)[C@H](Cc3ccc(-c4ccccc4)cc3)NC(=O)[C@H](Cc3ccc(OCC(=O)O)cc3)NC2=O)c1 (stereo partly drawn) [Compound 3660] ({CH2CO}-[Dab]Y(Carboxymethyl)D[Phe(3-Me)]Y(Carboxymethyl)[Bip]Y(Carboxymethyl)[Orn][dL][Dab][Cha][Thr(3ξ)]SC[dN][Aun]-OH; thioether N-14)
IC50: 67.9 nM

CC(C)C[C@H]1NC(=O)[C@H](CCCN)NC(=O)[C@H](C(C)C)NC(=O)[C@H](Cc2ccc(-c3ccccc3)cc2)NC(=O)[C@H](C(C)C)NC(=O)[C@H](Cc2c[nH]c3ccccc23)NC(=O)[C@H](CC(=O)O)NC(=O)[C@H](Cc2ccc(OCC(=O)O)cc2)NC(=O)[C@H](C(C)O)NC(=O)CSC[C@@H](C(=O)N[C@@H](CCN)C(=O)NCCCCCCCCCCC(=O)O)NC(=O)[C@H](CN)NC(=O)[C@H](C(C)O)NC(=O)[C@H](CC2CCCCC2)NC(=O)[C@H](CCN)NC1=O (stereo partly drawn) [Compound 3661] ({CH2CO}-[Thr(3ξ)]Y(Carboxymethyl)DWV[Bip]V[Orn][dL][Dab][Cha][Thr(3ξ)][Dap]C[Dab][Aun]-OH; thioether N-14)
IC50: 35.8 nM

CC(C)C[C@H]1NC(=O)[C@H](CCCN)NC(=O)[C@H](C(C)C)NC(=O)[C@H](Cc2ccc(-c3ccccc3)cc2)NC(=O)[C@H](C(C)C)NC(=O)[C@H](Cc2c[nH]c3ccccc23)NC(=O)[C@H](CC(=O)O)NC(=O)[C@H](Cc2ccc(OCC(=O)O)cc2)NC(=O)[C@H](C(C)O)NC(=O)CSC[C@@H](C(=O)N[C@@H](CCN)C(=O)NCCOCCOCC(=O)N[C@@H](CCC(=O)NCCCCCCCCCCC(=O)O)C(=O)O)NC(=O)[C@H](CN)NC(=O)[C@H](C(C)O)NC(=O)[C@H](CC2CCCCC2)NC(=O)[C@H](CCN)NC1=O (stereo partly drawn) [Compound 3662] ({CH2CO}-[Thr(3ξ)]Y(Carboxymethyl)DWV[Bip]V[Orn][dL][Dab][Cha][Thr(3ξ)][Dap]C[Dab][AEEA][γGlu][Aun]-OH; thioether N-14)
IC50: 15.1 nM

CC(C)C[C@H]1NC(=O)[C@H](CCCN)NC(=O)[C@H](C(C)C)NC(=O)[C@H](Cc2ccc(-c3ccccc3)cc2)NC(=O)[C@H](C(C)C)NC(=O)[C@H](Cc2c[nH]c3ccccc23)NC(=O)[C@H](CC(=O)O)NC(=O)[C@H](Cc2ccc(OCC(=O)O)cc2)NC(=O)[C@H](C(C)O)NC(=O)CSC[C@@H](C(=O)N[C@@H](CCN)C(=O)NCCOCCOCC(=O)N[C@@H](CCC(=O)NCCCCCCCCCCC(=O)O)C(=O)O)NC(=O)[C@H](CCCCN)NC(=O)[C@H](C(C)O)NC(=O)[C@H](CC2CCCCC2)NC(=O)[C@H](CCN)NC1=O (stereo partly drawn) [Compound 3663] ({CH2CO}-[Thr(3ξ)]Y(Carboxymethyl)DWV[Bip]V[Orn][dL][Dab][Cha][Thr(3ξ)]KC[Dab][AEEA][γGlu][Aun]-OH; thioether N-14)
IC50: 15.3 nM

CC(C)C[C@H]1NC(=O)[C@H](CCCN)NC(=O)[C@H](C(C)C)NC(=O)[C@H](Cc2ccc(-c3ccccc3)cc2)NC(=O)[C@H](C(C)C)NC(=O)[C@H](Cc2c[nH]c3ccccc23)NC(=O)[C@H](CC(=O)O)NC(=O)[C@H](Cc2ccc(OCC(=O)O)cc2)NC(=O)[C@H](C(C)O)NC(=O)CSC[C@@H](C(=O)N[C@@H](CCN)C(=O)NCCCCCCCCCCC(=O)O)NC(=O)[C@H](CO)NC(=O)[C@H](C(C)O)NC(=O)[C@H](CC2CCCCC2)NC(=O)[C@H](CCN)NC1=O (stereo partly drawn) [Compound 3664] ({CH2CO}-[Thr(3ξ)]Y(Carboxymethyl)DWV[Bip]V[Orn][dL][Dab][Cha][Thr(3ξ)]SC[Dab][Aun]-OH; thioether N-14)
IC50: 27.7 nM

CC(C)C[C@H]1NC(=O)[C@H](CCCN)NC(=O)[C@H](C(C)C)NC(=O)[C@H](Cc2ccc(-c3ccccc3)cc2)NC(=O)[C@H](C(C)C)NC(=O)[C@H](Cc2c[nH]c3ccccc23)NC(=O)[C@H](CC(=O)O)NC(=O)[C@H](Cc2ccc(OCC(=O)O)cc2)NC(=O)[C@H](C(C)O)NC(=O)CSC[C@@H](C(=O)N[C@@H](CCN)C(=O)NCCCCCCCCCCC(=O)O)NC(=O)[C@H](Cc2cnc[nH]2)NC(=O)[C@H](C(C)O)NC(=O)[C@H](CC2CCCCC2)NC(=O)[C@H](CCN)NC1=O (stereo partly drawn) [Compound 3665] ({CH2CO}-[Thr(3ξ)]Y(Carboxymethyl)DWV[Bip]V[Orn][dL][Dab][Cha][Thr(3ξ)]HC[Dab][Aun]-OH; thioether N-14)
IC50: 23.2 nM

CC(C)C[C@H]1NC(=O)[C@H](CCCN)NC(=O)[C@H](C(C)C)NC(=O)[C@H](Cc2ccc(-c3ccccc3)cc2)NC(=O)[C@H](C(C)C)NC(=O)[C@H](Cc2c[nH]c3ccccc23)NC(=O)[C@H](CC(=O)O)NC(=O)[C@H](Cc2ccc(OCC(=O)O)cc2)NC(=O)[C@H](C(C)O)NC(=O)CSC[C@@H](C(=O)N[C@@H](CCN)C(=O)NCCCCCCCCCCC(=O)O)NC(=O)[C@H](CO)NC(=O)[C@H](CCCCN)NC(=O)[C@H](CC2CCCCC2)NC(=O)[C@H](CCN)NC1=O (stereo partly drawn) [Compound 3666] ({CH2CO}-[Thr(3ξ)]Y(Carboxymethyl)DWV[Bip]V[Orn][dL][Dab][Cha]KSC[Dab][Aun]-OH; thioether N-14)
IC50: 32 nM

CC(C)C[C@H]1NC(=O)[C@H](CCCN)NC(=O)[C@H](Cc2ccc(O)cc2)NC(=O)[C@H](Cc2ccc(-c3ccccc3)cc2)NC(=O)[C@H](C(C)C)NC(=O)[C@H](Cc2c[nH]c3ccccc23)NC(=O)[C@H](CC(=O)O)NC(=O)[C@H](Cc2ccc(OCC(=O)O)cc2)NC(=O)[C@H](C(C)O)NC(=O)CSC[C@@H](C(=O)N[C@@H](CCN)C(=O)NCCCCCCCCCCC(=O)O)NC(=O)[C@H](CN)NC(=O)[C@H](C(C)O)NC(=O)[C@H](CC2CCCCC2)NC(=O)[C@H](CCN)NC1=O (stereo partly drawn) [Compound 3667] ({CH2CO}-[Thr(3ξ)]Y(Carboxymethyl)DWV[Bip]Y[Orn][dL][Dab][Cha][Thr(3ξ)][Dap]C[Dab][Aun]-OH; thioether N-14)
IC50: 37.4 nM
